Activity calls are given as the source filed them. No cut-off for these calls is given here.
Test: Inhibition of trypsin

Row | Activity | Compound
1 | inactive | C=C(C)[C@@H]1CC=C(C)[C@H](CC[C@H]2C(=C)CC[C@H]3C(C)(C)C(=O)CC[C@]23C)[C@@]1(C)CCC(=O)O
2 | inactive | C=C1CC[C@H]2C(C)(C)[C@@H](O)CC[C@]2(C)[C@H]1CC[C@H]1C(C)=CC[C@H]2C(C)(C)C(=O)CC[C@]12C
3 | inactive | C=C(C)[C@@H]1CCC(=C)[C@H](CC[C@H]2C(C)=CC[C@@H](C(=C)C)[C@]2(C)CCC(=O)O)[C@@]1(C)CCC(=O)O
4 | inactive | C=C(C)[C@@H]1CC=C(C)[C@H](CC[C@H]2C(=C)CC[C@H]3C(C)(C)C(=O)CC[C@]23C)[C@@]1(C)CCC(=O)OC
5 | inactive | C=C1CC[C@H]2C(C)(C)C(=O)CC[C@]2(C)[C@H]1CC[C@H]1C(C)=CC[C@H]2C(C)(C)[C@@H](O)CC[C@]12C

From ChEMBL document CHEMBL1150142, “New onoceranoid triterpene constituents from Lansium domesticum” (J Nat Prod, 2002)
